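Compound exposure: 48 hours, 5 concentrations, 96-well plates. The concentration for 50% growth inhibition is given as GI50. TGI marks complete inhibition of growth.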
Experiments:
Assay in all cases: NCI tumour cell line growth inhibition, 48 h
KM20L2 colon = test system: KM20L2 colon
RXF-631 renal = test system: RXF-631 renal
SNB-78 CNS = test system: SNB-78 CNS
BT-549 breast = test system: BT-549 breast
HS 578T breast = test system: HS 578T breast
MDA-MB-231 breast = test system: MDA-MB-231 breast
MDA-N = test system: MDA-N
NCI/ADR-RES ovarian = test system: NCI/ADR-RES ovarian
P388 leukemia = test system: P388 leukemia
P388/ADR leukemia = test system: P388/ADR leukemia
T-47D breast = test system: T-47D breast

CCC1CN2CCc3cc(OC)c(OC)cc3C2CC1CC1c2cc(OC)c(OC)cc2CCN1C(=O)CNC(=O)OC(C)(C)C (stereo not given)
TGI (KM20L2 colon): 90.6 µM
TGI (RXF-631 renal): > 100 µM
TGI (SNB-78 CNS): 51 µM

O=C(O)CCC1CCc2cccc3occ1c23 (stereo not given)
TGI (KM20L2 colon): > 100 µM
TGI (RXF-631 renal): > 100 µM
TGI (SNB-78 CNS): > 100 µM

C/C=C(/CCCCNCCCC)[Si](C)(C)C
TGI (KM20L2 colon): 21.7 µM
TGI (RXF-631 renal): 31.3 µM
TGI (SNB-78 CNS): 29.7 µM

COc1cc(Oc2c(O)c(C)c(OC)c(C(C)=O)c2O)c(C(C)=O)c(O)c1C
TGI (KM20L2 colon): > 100 µM
TGI (RXF-631 renal): > 100 µM
TGI (SNB-78 CNS): > 100 µM

FC(F)(F)c1ccc2nc(Nc3ccc(Cl)c(Cl)c3)c(-c3ccccc3)nc2c1
TGI (KM20L2 colon): > 100 µM
TGI (SNB-78 CNS): > 100 µM

C=C(N=[N+]=[N-])c1cn(C2CC(O)C(CO)O2)c(=O)[nH]c1=O (stereo not given)
TGI (KM20L2 colon): > 100 µM
TGI (SNB-78 CNS): > 100 µM

O=c1[nH]cc(OCC(F)(F)F)c(=O)[nH]1
TGI (KM20L2 colon): > 100 µM
TGI (RXF-631 renal): > 100 µM
TGI (SNB-78 CNS): > 100 µM

CC(C)=CC(=O)CC(=O)C(=O)Nc1ccc(Cl)c(Cl)c1
TGI (KM20L2 colon): > 100 µM
TGI (SNB-78 CNS): > 100 µM

Cc1c2ccncc2c(C)c2c1[nH]c1ccc(OC(C)(C)C)cc12
TGI (KM20L2 colon): 11.1 µM
TGI (RXF-631 renal): 6.58 µM
TGI (SNB-78 CNS): 6.53 µM

Cc1cccc(C(C)(C)C)c1NC(=O)C(=O)C(c1cnc2ccccc2n1)[N+](=O)[O-] (stereo not given)
TGI (KM20L2 colon): > 100 µM
TGI (SNB-78 CNS): > 100 µM

O=C(Nc1cc(Cl)c(Cl)cc1Cl)C(=O)C(C(=O)c1ccc(Cl)c(Cl)c1)C1OC(=O)c2ccccc21 (stereo not given)
TGI (KM20L2 colon): 33 µM
TGI (SNB-78 CNS): > 100 µM

O=C1CC2C(=O)N(Cc3ccccc3)C1C(S(=O)(=O)c1ccccc1)C2S(=O)(=O)c1ccccc1 (stereo not given)
TGI (KM20L2 colon): 7.4 µM
TGI (RXF-631 renal): 28.1 µM
TGI (SNB-78 CNS): 36.1 µM

CN(C)C(=O)C1CCC(=C2C(=O)OC(C)(C)OC2=O)N1C (stereo not given)
TGI (KM20L2 colon): > 100 µM
TGI (SNB-78 CNS): > 100 µM

CCOC(=O)/C(C#N)=C1\N[C@H](C(=O)OCC)CO1
TGI (KM20L2 colon): > 100 µM
TGI (RXF-631 renal): > 100 µM
TGI (SNB-78 CNS): > 100 µM

COc1ccc(COCC(Cn2ccnc2)OCc2ccc(C(=O)O)cc2)cc1 (stereo not given)
TGI (KM20L2 colon): > 100 µM
TGI (RXF-631 renal): > 100 µM
TGI (SNB-78 CNS): > 100 µM

COC(=O)[C@]1(C)CCC[C@@]2(C)C1CCC1=C[C@@]3(C(C)C)CC[C@]12OO3 (stereo not given in full)
TGI (RXF-631 renal): 63.8 µM
TGI (SNB-78 CNS): > 100 µM

CC1CC2(CC[C@@H]1O)OCCO2 (stereo not given in full)
TGI (RXF-631 renal): > 100 µM
TGI (SNB-78 CNS): > 100 µM

COC(=O)C(=O)C(C(=O)C=C(C)C)C(=O)C(=O)Nc1cccc(C(C)=O)c1 (stereo not given)
TGI (KM20L2 colon): > 100 µM
TGI (RXF-631 renal): > 100 µM
TGI (SNB-78 CNS): > 100 µM

O=C(O)c1c[nH]cc1C(=O)O
TGI (KM20L2 colon): > 100 µM
TGI (SNB-78 CNS): > 100 µM

CC(C)[C@@H](COC(C)(C)C)N=CN1CCc2c([nH]c3ccccc23)C1
TGI (KM20L2 colon): > 100 µM
TGI (SNB-78 CNS): > 100 µM

CCCCCCCCCCCCC(=O)[O-].CCCCCCCCCCCCC(=O)[O-].CCCCCCCCCCCCC(=O)[O-].CCCCCCCCCCCCC(=O)[O-].[Mo+2].[Mo+2]
GI50 (KM20L2 colon): 16.2 µM
TGI (KM20L2 colon): 34.9 µM
GI50 (RXF-631 renal): 0.403 µM
TGI (RXF-631 renal): 2.06 µM
GI50 (SNB-78 CNS): 19.9 µM
TGI (SNB-78 CNS): 67.3 µM

COc1ccc2c(C(=O)O)cc3cc(OC)c(OC)cc3c2c1
TGI (KM20L2 colon): > 100 µM
TGI (RXF-631 renal): > 100 µM
TGI (SNB-78 CNS): > 100 µM

CCOc1ccc(NC(=O)CC2SC(N)=NC2=O)cc1 (stereo not given)
TGI (KM20L2 colon): > 100 µM
TGI (SNB-78 CNS): > 100 µM

CCO[C@@H]1C2C=CC(C2)[C@H]1[N+](=O)[O-] (stereo not given in full)
TGI (KM20L2 colon): > 100 µM
TGI (SNB-78 CNS): > 100 µM

COC(=O)C(Cc1nc2ccc(Cl)cc2[nH]c1=O)C(=O)C(=O)Nc1ccccc1[N+](=O)[O-] (stereo not given)
TGI (KM20L2 colon): > 100 µM
TGI (RXF-631 renal): > 100 µM
TGI (SNB-78 CNS): > 100 µM

CCSc1nc(COC(=O)NC)c(COC(=O)NC)n1C
TGI (BT-549 breast): > 100 µM
TGI (HS 578T breast): > 100 µM
TGI (KM20L2 colon): > 100 µM
TGI (MDA-MB-231 breast): > 100 µM
TGI (MDA-N): > 100 µM
TGI (NCI/ADR-RES ovarian): > 100 µM
TGI (P388 leukemia): > 100 µM
TGI (P388/ADR leukemia): > 100 µM
TGI (RXF-631 renal): > 100 µM
TGI (SNB-78 CNS): > 85.9 µM
TGI (T-47D breast): > 100 µM

CN(C)CCNC(=O)c1ccc(Cl)c2c(Nc3ccc(S(N)(=O)=O)cc3)c3ccccc3nc12
TGI (KM20L2 colon): 13.4 µM
TGI (RXF-631 renal): 11.6 µM

CC(=O)NC(CCCN(Cc1ccccc1)C(=O)N(CCCl)N=O)C(=O)NCc1ccccc1 (stereo not given)
TGI (KM20L2 colon): > 100 µM
TGI (SNB-78 CNS): > 100 µM

N#Cc1ccccc1NC(=O)c1ccccc1
TGI (KM20L2 colon): > 100 µM
TGI (SNB-78 CNS): > 100 µM

CC(C)=CCC/C(C)=C/Cc1c(O)ccc2c1[nH]c1cc(O)c(C)cc12
TGI (KM20L2 colon): > 25 µM
TGI (SNB-78 CNS): > 25 µM

C=CCc1ccc(O)c(-c2cc(C3Oc4c(-c5cc(CC=C)ccc5O)cc(O)cc4[C@@H]3CO)ccc2O)c1 (stereo not given in full)
TGI (KM20L2 colon): 60.3 µM
TGI (SNB-78 CNS): > 100 µM

N/N=C(\Cc1ccccc1)NN=C(N)N
TGI (RXF-631 renal): > 100 µM
TGI (SNB-78 CNS): > 100 µM

CC1=NN(C(=O)c2ccc(Cl)cc2)C(=O)/C1=C/c1cccc([N+](=O)[O-])c1
TGI (KM20L2 colon): > 100 µM
TGI (SNB-78 CNS): > 100 µM

O=C(Cc1ccccc1)N/N=C(\C1=Nc2ccc([N+](=O)[O-])cc2NC1O)C(O)c1ccc([N+](=O)[O-])cc1 (stereo not given)
TGI (KM20L2 colon): > 100 µM
TGI (RXF-631 renal): > 100 µM
TGI (SNB-78 CNS): > 100 µM

Clc1ccc(CN2COc3c(cc(Cl)c4cccnc34)C2)cc1
TGI (KM20L2 colon): 27.5 µM
TGI (RXF-631 renal): 23.1 µM
TGI (SNB-78 CNS): 17.9 µM

O=C1C(=O)N(C2C3CC4CC(C3)CC2C4)C(=O)C(=O)C1c1nc2ccccc2o1 (stereo not given)
TGI (KM20L2 colon): > 100 µM
TGI (RXF-631 renal): > 100 µM
TGI (SNB-78 CNS): > 100 µM

Reference: PubChem BioAssay (NCI)
